Source: PubChem BioAssay AID1918947 (Molecular Pharmacology Branch, DTP, NCI, 2023)
Where “and” joins values, the source holds several entries; their conditions need not be identical. Equal entries are not always repeated.

Test system: A498 complex spheroid viability
Assay: Anticancer human tumor A498 cell line growth inhibition;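 further: spheroids exposed to agents for seven days before readout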;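 on viability, T/C: 100% = DMSO vehicle-treated spheroids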
Details: for viability, T/C: stronger effect = lower value; active means viability on the fitted dose curve at most 10% of control; inactive means the rest
Procedure, shortened: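 Drug combinations with the LSD1 inhibitor iadademstat tested on tumor cells co-cultured as spheroids with endothelial cells and mesenchymal stem cells. Concentrations descended in half-log increments from clinical Cmax or 10 microM.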

[1] = curve of first compound, second compound 0.1 µM
[2] = curve of first compound, second compound 0.316 µM
[3] = curve of first compound, second compound 1 µM
[4] = curve of first compound, second compound 3.16 µM
[5] = curve of first compound, second compound 10 µM
[6] = second compound 0.1 µM, first compound 0.0316 µM
[7] = second compound 0.1 µM, first compound 0.1 µM
[8] = second compound 0.1 µM, first compound 0.316 µM
[9] = second compound 0.1 µM, first compound 1 µM
[10] = second compound 0.1 µM, first compound 3.16 µM
[11] = second compound 0.1 µM, first compound 10 µM
[12] = second compound 0.316 µM, first compound 0.0316 µM
[13] = second compound 0.316 µM, first compound 0.1 µM
[14] = second compound 0.316 µM, first compound 0.316 µM
[15] = second compound 0.316 µM, first compound 1 µM
[16] = second compound 0.316 µM, first compound 3.16 µM
[17] = second compound 0.316 µM, first compound 10 µM
[18] = second compound 1 µM, first compound 0.0316 µM
[19] = second compound 1 µM, first compound 0.1 µM
[20] = second compound 1 µM, first compound 0.316 µM
[21] = second compound 1 µM, first compound 1 µM
[22] = second compound 1 µM, first compound 3.16 µM
[23] = second compound 1 µM, first compound 10 µM
[24] = second compound 3.16 µM, first compound 0.0316 µM
[25] = second compound 3.16 µM, first compound 0.1 µM
[26] = second compound 3.16 µM, first compound 0.316 µM
[27] = second compound 3.16 µM, first compound 1 µM
[28] = second compound 3.16 µM, first compound 3.16 µM
[29] = second compound 3.16 µM, first compound 10 µM
[30] = second compound 10 µM, first compound 0.0316 µM
[31] = second compound 10 µM, first compound 0.1 µM
[32] = second compound 10 µM, first compound 0.316 µM
[33] = second compound 10 µM, first compound 1 µM
[34] = second compound 10 µM, first compound 3.16 µM
[35] = second compound 10 µM, first compound 10 µM
[36] = second compound 0.1 µM, first compound 0.00949 µM
[37] = second compound 0.1 µM, first compound 0.03 µM
[38] = second compound 0.1 µM, first compound 0.0949 µM
[39] = second compound 0.1 µM, first compound 0.3 µM
[40] = second compound 0.1 µM, first compound 0.949 µM
[41] = second compound 0.1 µM, first compound 3 µM
[42] = second compound 0.316 µM, first compound 0.00949 µM
[43] = second compound 0.316 µM, first compound 0.03 µM
[44] = second compound 0.316 µM, first compound 0.0949 µM
[45] = second compound 0.316 µM, first compound 0.3 µM
[46] = second compound 0.316 µM, first compound 0.949 µM
[47] = second compound 0.316 µM, first compound 3 µM
[48] = second compound 1 µM, first compound 0.00949 µM
[49] = second compound 1 µM, first compound 0.03 µM
[50] = second compound 1 µM, first compound 0.0949 µM
[51] = second compound 1 µM, first compound 0.3 µM
[52] = second compound 1 µM, first compound 0.949 µM
[53] = second compound 1 µM, first compound 3 µM
[54] = second compound 3.16 µM, first compound 0.00949 µM
[55] = second compound 3.16 µM, first compound 0.03 µM
[56] = second compound 3.16 µM, first compound 0.0949 µM
[57] = second compound 3.16 µM, first compound 0.3 µM
[58] = second compound 3.16 µM, first compound 0.949 µM
[59] = second compound 3.16 µM, first compound 3 µM
[60] = second compound 10 µM, first compound 0.00949 µM
[61] = second compound 10 µM, first compound 0.03 µM
[62] = second compound 10 µM, first compound 0.0949 µM
[63] = second compound 10 µM, first compound 0.3 µM
[64] = second compound 10 µM, first compound 0.949 µM
[65] = second compound 10 µM, first compound 3 µM

Cn1ncnc1C1c2n[nH]c(=O)c3cc(F)cc(c23)NC1c1ccc(F)cc1 (configuration not stated)
> 0.1 µM: IC50 (curve of compound)
inactive: viability, T/C (compound 0.000316 µM) 98.4% and 110% | viability, T/C (compound 0.001 µM) 99.4% and 107% | viability, T/C (compound 0.00316 µM) 97.5% and 102% | viability, T/C (compound 0.01 µM) 106% and 103% | viability, T/C (compound 0.0316 µM) 95% and 99% | viability, T/C (compound 0.1 µM) 101% and 94.5%

O=C(c1cc(Cc2n[nH]c(=O)c3ccccc23)ccc1F)N1CCN(C(=O)C2CC2)CC1 + NC1CC1c1ccc(-c2cccc(O)c2)cc1
inactive: viability, T/C [6] 107% | viability, T/C [7] 111% | viability, T/C [8] 105% | viability, T/C [9] 105% | viability, T/C [10] 107% | viability, T/C [11] 91.5% | viability, T/C [12] 109% | viability, T/C [13] 113% | viability, T/C [14] 111% | viability, T/C [15] 108% | viability, T/C [16] 102% | viability, T/C [17] 97.8% | viability, T/C [18] 107% | viability, T/C [19] 110% | viability, T/C [20] 105% | viability, T/C [21] 99.1% | viability, T/C [22] 97.6% | viability, T/C [23] 96% | viability, T/C [24] 101% | viability, T/C [25] 105% | viability, T/C [26] 104% | viability, T/C [27] 103% | viability, T/C [28] 95.2% | viability, T/C [29] 91% | viability, T/C [30] 102% | viability, T/C [31] 105% | viability, T/C [32] 107% | viability, T/C [33] 101% | viability, T/C [34] 102% | viability, T/C [35] 88.4%
> 10 µM: IC50 [1] | IC50 [2] | IC50 [3] | IC50 [4] | IC50 [5]

O=C(C=Cc1cccc(S(=O)(=O)Nc2ccccc2)c1)NO + NC1CCC(NC2CC2c2ccccc2)CC1
0.253 µM: IC50 [2]
0.131 µM: IC50 [5]
active: viability, T/C [59] 8.14% | viability, T/C [65] 7.67%
0.168 µM: IC50 [4]
inactive: viability, T/C [36] 81.5% | viability, T/C [37] 82.3% | viability, T/C [38] 67.1% | viability, T/C [39] 43.2% | viability, T/C [40] 33.6% | viability, T/C [41] 12.9% | viability, T/C [42] 88% | viability, T/C [43] 87.1% | viability, T/C [44] 69.3% | viability, T/C [45] 41.2% | viability, T/C [46] 33.1% | viability, T/C [47] 11.7% | viability, T/C [48] 79.1% | viability, T/C [49] 78% | viability, T/C [50] 63.1% | viability, T/C [51] 46.8% | viability, T/C [52] 28.1% | viability, T/C [53] 10.4% | viability, T/C [54] 79.9% | viability, T/C [55] 72.7% | viability, T/C [56] 60.4% | viability, T/C [57] 38.8% | viability, T/C [58] 23.2% | viability, T/C [60] 70.4% | viability, T/C [61] 64.6% | viability, T/C [62] 56.5% | viability, T/C [63] 36% | viability, T/C [64] 22.9%
0.25 µM: IC50 [3]
0.266 µM: IC50 [1]

CC(C)CC(NC(=O)C(Cc1ccccc1)NC(=O)c1cnccn1)B(O)O (configuration not stated) + NC1CC1c1ccc(-c2cccc(O)c2)cc1
0.000661 µM: IC50 [1]
0.000598 µM: IC50 [4]
inactive: viability, T/C (second compound 0.1 µM, first compound 0.000316 µM) 105% | viability, T/C (second compound 0.1 µM, first compound 0.001 µM) 19.2% | viability, T/C (second compound 0.316 µM, first compound 0.000316 µM) 109% | viability, T/C (second compound 0.316 µM, first compound 0.001 µM) 21.9% | viability, T/C (second compound 1 µM, first compound 0.000316 µM) 106% | viability, T/C (second compound 1 µM, first compound 0.001 µM) 18.4% | viability, T/C (second compound 3.16 µM, first compound 0.000316 µM) 95.6% | viability, T/C (second compound 3.16 µM, first compound 0.001 µM) 13.3% | viability, T/C (second compound 10 µM, first compound 0.000316 µM) 93.7% | viability, T/C (second compound 10 µM, first compound 0.001 µM) 15.9%
0.00066 µM: IC50 [3]
active: viability, T/C (second compound 0.1 µM, first compound 0.00316 µM) 2.39% | viability, T/C (second compound 0.1 µM, first compound 0.01 µM) 0.87% | viability, T/C [6] 1% | viability, T/C [7] 0.39% | viability, T/C (second compound 0.316 µM, first compound 0.00316 µM) 3.05% | viability, T/C (second compound 0.316 µM, first compound 0.01 µM) 1.15% | viability, T/C [12] 0.51% | viability, T/C [13] 0.37% | viability, T/C (second compound 1 µM, first compound 0.00316 µM) 2.67% | viability, T/C (second compound 1 µM, first compound 0.01 µM) 0.79% | viability, T/C [18] 0.63% | viability, T/C [19] 0.4% | viability, T/C (second compound 3.16 µM, first compound 0.00316 µM) 2.6% | viability, T/C (second compound 3.16 µM, first compound 0.01 µM) 1.41% | viability, T/C [24] 0.42% | viability, T/C [25] 0.5% | viability, T/C (second compound 10 µM, first compound 0.00316 µM) 2.17% | viability, T/C (second compound 10 µM, first compound 0.01 µM) 0.62% | viability, T/C [30] 0.39% | viability, T/C [31] 0.43%
0.000604 µM: IC50 [5]
0.00069 µM: IC50 [2]

COc1cc(C2c3cc4c(cc3C(OC3OC5COC(C)OC5C(O)C3O)C3COC(=O)C23)OCO4)cc(OC)c1O (configuration not stated) + NC1CCC(NC2CC2c2ccccc2)CC1
inactive: viability, T/C [36] 81.8% | viability, T/C [37] 67.1% | viability, T/C [38] 59.9% | viability, T/C [39] 58.5% | viability, T/C [40] 55.7% | viability, T/C [41] 54.5% | viability, T/C [42] 79.4% | viability, T/C [43] 71.2% | viability, T/C [44] 70.3% | viability, T/C [45] 67.5% | viability, T/C [46] 59.6% | viability, T/C [47] 57.5% | viability, T/C [48] 82% | viability, T/C [49] 69.3% | viability, T/C [50] 68.6% | viability, T/C [51] 62.9% | viability, T/C [52] 57.6% | viability, T/C [53] 57.2% | viability, T/C [54] 72.5% | viability, T/C [55] 69.6% | viability, T/C [56] 63.5% | viability, T/C [57] 60.7% | viability, T/C [58] 52.5% | viability, T/C [59] 49.2% | viability, T/C [60] 64.3% | viability, T/C [61] 66.8% | viability, T/C [62] 61.5% | viability, T/C [63] 63.4% | viability, T/C [64] 48.8% | viability, T/C [65] 45.3%
> 3 µM: IC50 [1] | IC50 [2] | IC50 [3]
1.42 µM: IC50 [5]
2.33 µM: IC50 [4]

O=C(c1cc(Cc2n[nH]c(=O)c3ccccc23)ccc1F)N1CCN(C(=O)C2CC2)CC1 + NC1CCC(NC2CC2c2ccccc2)CC1
inactive: viability, T/C [6] 85.1% | viability, T/C [7] 82.7% | viability, T/C [8] 89.1% | viability, T/C [9] 85.8% | viability, T/C [10] 84.7% | viability, T/C [11] 82.1% | viability, T/C [12] 92.3% | viability, T/C [13] 93.3% | viability, T/C [14] 94.4% | viability, T/C [15] 94.4% | viability, T/C [16] 85% | viability, T/C [17] 84.4% | viability, T/C [18] 82.3% | viability, T/C [19] 87.4% | viability, T/C [20] 91.1% | viability, T/C [21] 87.4% | viability, T/C [22] 79.5% | viability, T/C [23] 75.9% | viability, T/C [24] 79.8% | viability, T/C [25] 85.3% | viability, T/C [26] 69.5% | viability, T/C [27] 85.5% | viability, T/C [28] 79.2% | viability, T/C [29] 77.1% | viability, T/C [30] 71% | viability, T/C [31] 73.7% | viability, T/C [32] 74.4% | viability, T/C [33] 74.1% | viability, T/C [34] 62.5% | viability, T/C [35] 66.8%
> 10 µM: IC50 [1] | IC50 [2] | IC50 [3] | IC50 [4] | IC50 [5]
